{
  "source": "patent US6958236B2",
  "about": "“Control of gene expression in plants” (priority 2000, dated 2005)",
  "molecules": {"B1": {"name": "DBV: EcR chimera: Drosophila melanogaster C+D domains, black cutworm E domain, VP16; SEQ ID NO:73-74 (protein)", "chain": "MGRDDLSPSSSLNGYSANESCDAKKSKKGPAPRVQEELCLVCGDRASGYHYNALTCEGCKGFFRRSVTKSAVYCCKFGRACEMDMYMRRKCQECRLKKCLAVGMRPECVVPENQCAMKRREKKAQKEKDKMTTSPSSQHGGNGSLASGGGQDFVKKEILDLMTCEPPQHATIPLLPDEILAKCQARNIPSLTYNQLAVIYKLIWYQEGYEQPSEEDLKRVTQTWQSDEDEEESDMPFRQITEMTILTVQLIVEFAKGLPGFAKISQSDQITLLKACSSEVMMLRVARRYDAATDSVLFANNQAYSRDNYRKAGMSYVIEDLLHFCRCMYSMMMDNVHYALLTAIVIFSDRPGLEQPLLVEEIQRYYLNTLRVYILNQNSASPRCPVVFAKILGILTELRTLGMQNSNMCISLKLKNRKLPPFLEEIWDVESRGKLAPPTDVSLGDELHLDGEDVAMAHADALDDFDLDMLGDGDSPGPGFTPHDSAPYGALDMADFEFEQMFTDALGIDEYGG"}, "B2": {"name": "MCV: EcR chimera: Manduca sexta C+D domains, Chironomus tentans E domain, VP16; SEQ ID NO:91-92 (protein)", "chain": "MGREELSPASSINGCSTDGEPRRQKKGPAPRQQEELCLVCGDRASGYHYNALTCEGCKGFFRRSVTKNAVYICKFGHACEMDMYMRRKCQECRLKKCLAVGMRPECVVPESTCKNKRREKEAQREKDKLPVSTTTVDDHMPAIMQCDPPPPEAARIHEVVPRFLTEKLMEQNRLKNVTPLSANQKSLIARLVWYQDGYEQPSEEDLKRITTELEEEEDQEHEANFRYITEVTILTVQLVVEFAKGLPAFIKIPQEDQITLLKACSSEVMMLRMARRYDHDSDSILFANNTAYTKQTYQLAGMEETIDDLLHFCRQMYALSIDNVEYALLTAIVIFSDRPGLEKAEMVDIIQSYYTETLKVYIANRHGGESRCSVQFAKLLGILTELRTMGNKNSEMCFSLKLRNRKLPRFLEEVWDVGDVKLAPPTDVSLGDELHLDGEDVAMAHADALDDFDLDMLGDGDSPGPGFTPHDSAPYGALDMADFEFEQMFTDALGIDEYGG"}, "B3": {"name": "CCV: EcR chimera: Chironomus tentans C+D and E domains, VP16; SEQ ID NO:87-88 (protein)", "chain": "MKLDDGNMSVHMGDGLDGKKSSSKKGPVPRQQEELCLVCGDRASGYHYNALTCEGCKGFFRRSVTKNAVYCCKFGHECEMDMYMKRKCQECRLKKCLAVGMRPECVVPENQCAIKRKEKKAQKEKDKVPGIVGSNTSSSSLLNQSLNNGSLKNLEISYREELLEQLMKCDPPPHPMQQLLPEKLLMENRAKGTPQLTANQVAVIYKLIWYQDGYEQPSEEDLKRITTELEEEEDQEHEANFRYITEVTILTVQLVVEFAKGLPAFIKIPQEDQITLLKACSSEVMMLRMARRYDHDSDSILFANNTAYTKQTYQLAGMEETIDDLLHFCRQMYALSIDNVEYALLTAIVIFSDRPGLEKAEMVDIIQSYYTETLKVYIANRHGGESRCSVQFAKLLGILTELRTMGNKNSEMCFSLKLRNRKLPRFLEEVWDVGDVKLAPPTDVSLGDELHLDGEDVAMAHADALDDFDLDMLGDGDSPGPGFTPHDSAPYGALDMADFEFEQMFTDALGIDEYGG"}, "B4": {"name": "EBV (protein)", "chain": "MGREELSPASSVNGCSTDGEARRQKKGPAPRQQEELCLVCGDRASGYHYNALTCEGCKGFFRRSVTKNAVYICKFGHACEMDMYMRRKCQECRLKKCLAVGMRPECVVPETQCAQKRKEKKAQREKDKLPVSTTTVDDHMPPIMQCDPPPPEAARILECLQHEVVPRFLSEKLMEQNRLKNIPPLTANQQFLIARLVWYQEGYEQPSEEDLKRVTQTWQSDEDEEESDMPFRQITEMTILTVQLIVEFAKGLPGFAKISQSDQITLLKACSSEVMMLRVARRYDAATDSVLFANNQAYSRDNYRKAGMSYVIEDLLHFCRCMYSMMMDNVHYALLTAIVIFSDRPGLEQPLLVEEIQRYYLNTLRVYILNQNSASPRCPVVFAKILGILTELRTLGMQNSNMCISLKLKNRKLPPFLEEIWDVESRGKLAPPTDVSLGDELHLDGEDVAMAHADALDDFDLDMLGDGDSPGPGFTPHDSAPYGALDMADFEFEQMFTDALGIDEYGG"}},
  "key": {"[1]": {"tested_on": "GAL4×10-Luciferase vector pCGS206", "assay": "Tobacco BY2 suspension cells bombarded with receptor vector and GAL4x10-Luciferase vector, GUS-normalized luciferase", "type": "cell-based, Nicotiana tobaccum L. cv. Bright Yellow 2", "details": "absence of the EcR receptor", "experimental": "The GAL4-MV expression vector pCGS432 and the GAL4×10-Luciferase vector pCGS206 are simultaneously delivered into BY2 suspension cells (Nicotania tobacum L. cv. Bright Yellow 2) by high velocity microprojectile bombardment. A β-glucuronidase (GUS) vector is included as an internal control for transfection efficiency between samples. Transfected cells are incubated overnight in the presence and absence of the appropriate chemical ligand (tebufenozide (Teb), RH5889) in BY2 liquid culture media. After incubation, the cells are harvested and lysed by mechanical disruption. Cellular debris is removed by centrifugation at 20,800 g at 4° C. for 10 minutes. Cell lysates are assayed for luciferase expression levels using the Promega Luciferase Kit (Promega cat #E1500) using a Turner Designs TD 20/20 luminometer. GUS expression levels are determined using the GUS-Light kit (Tropix). […]\nThe GAL4-Manduca EcR-C1 expression vectors (pCGS441, pCGS442, and pCGS443) and the GAL4×10-Luciferase vector pCGS206 (Example 10) are simultaneously delivered into BY2 suspension cells (Nicotiana tobaccum L. cv. Bright Yellow 2) by high velocity microprojectile bombardment. […] Cell lysates are assayed for luciferase expression levels using the Promega Luciferase Kit (cat #E1500) using a Turner Designs TD 20/20 luminometer. β-glucuronidase expression levels are determined using the GUS-Light kit (Tropix). […]"}, "[2]": {"tested_on": "Transgenic plants harboring DNA from the plasmids pCGS202 and pCGS601", "assay": "Chemical induction of transgenic maize plants, photon emission of leaves after luciferin spray", "type": "in vivo", "experimental": "This mixture is applied directly to one leaf of a plant while a control formulation mixture containing ethanol instead of tebufenozide is applied to another leaf. Treatments are left on the leaves between 24-48 hours. Plants are then treated by spraying the leaves with a mixture containing 7.5 mM luciferin and 1% surfactant and incubating for 5 minutes. Either whole plants or tissues are placed into a dark box and photon emission is monitored using a digital camera and software that counts the accumulated photons that are emitted. Both the image of the tissue and the total photon count is recorded.\nPlants at V5 stage are treated as above. The plants treated with tebufenozide emit substantial amounts of light compared with those treated with ethanol only. The table below contains actual counts of leaf samples from maize plants transformed with pCGS601 and pCGS202.\nLate stage post pollinated maize plants are also treated as above. Leaves are analyzed as above and the total photon counts are recorded in the table below."}, "[3]": {"tested_on": "Transgenic maize plants containing pCGS601 and pCGS202", "assay": "Chemical induction of transgenic maize plants, luciferase activity of leaf extract", "type": "in vivo", "experimental": "A formulation mixture containing 10% of a 2.0 mM tebufenozide solution in ethanol and 1% surfactant is applied directly to the leaves of the transgenic maize plants. The solution is left on the leaves between 18 and 40 hours. Leaves are then frozen in liquid nitrogen and ground to a powder. Subsequently, leaves are homogenized in cell culture lysis reagent (CCLR; 25 mM Tris-phosphate pH 7.8, 2 mM DTT, 2 mM 1,2-diaminoclyclohexane-N,N,N′,N′-tetraacetic acid, 10% glycerol, and 1% triton X-100). After spinning for 7 minutes at 14,000 g to pellet the cell debris, 20 μl of the supernatant is assayed for luciferase activity by the standard method (as described in the preceding examples).\nSix plants are treated with chemistry: three with ethanol as control and three with tebufenozide. After 40 hours, plants are assayed for luciferase activity.\nTo determine fold induction with tebufenozide, leaves of individual plants are compared for activity. Using the same plant, one leaf is treated with ethanol and another with tebufenozide. The plants are incubated for 18 hours and assayed for luciferase activity as described above."}, "pCGS154 reporter": {"tested_on": "pCGS154 reporter", "assay": "Transient transfection of S2 Drosophila cells with luciferase reporter and EcR receptor plasmids", "type": "cell-based", "details": "for Fold Activation With Chemistry Assay #1 / Fold Activation With Chemistry Assay #2: Example 8, 0.2 μM tebufenozide; for Fold Activation With Chemistry: Example 9, 0.2 μM tebufenozide", "experimental": "An in vivo cell based assay is designed to measure transcriptional activation by the receptors of a reporter plasmid. S2 Drosophila cells (ATCC CRL-1963) are transiently transfected with luciferase reporter and receptor expression plasmids using the calcium phosphate precipitation procedure (Di Nocera and David (1983) PNAS 80, 7095-7098). S2 cells are plated in 96 well format at a density of 2×10^5 in 166.6 μl of Schneider's Drosophila media supplemented with antibiotics and 10% heat inactivated fetal bovine serum (GIBO-BRL). The following day, 33.4 μl of a calcium phosphate precipitate containing 3-6 ng of pCGS154 reporter plasmid, 3-6 ng of EcR receptor plasmid along with salmon sperm DNA to a total of 400 ng DNA per well is added. Chemical ligands are added 16-24 hours after DNA addition to the cells. Cells are then harvested and extracted 24 hours after chemistry addition following the procedures for the luciferase assay by centrifuging and resuspending the cell pellets in 100 μl of cell culture lysis reagent (Promega). Luciferase activity is quantitated using chemiluminescence (Promega) using an analytical luminescence model 2001 luminometer.\nS2 cells contain Drosophila EcR and USP. The endogenous USP can be used as the heterodimerization partner for EcR or exogenous USP expression plasmid can be added to the assay.\nTo compare the activities of Manduca and Drosophila EcR, S2 cells are transiently transfected using the above procedure with the reporter plasmid pCGS 154 and either full-length Drosophila EcR, DDV, full-length Manduca EcR, or MMV. Tebufenozide at 0.2 µM and 2 μM is used as the chemical ligand. Luciferase assays are performed as described above. All of the results are normalized as a ratio of activity to the light unit value for the pCGS154 reporter without chemistry.\nThe activities of the EcR-VP16 chimeras are compared by transiently transfecting S2 cells as described in Example 3. Tebufenozide is added to the cells at 0.2 μM concentration. Results are expressed as fold activation, a ratio of the activity of the constructs with chemistry added as compared to activity of the constructs without chemistry. All results are normalized to the luciferase activity of the pCGS154 reporter without receptor addition.\n(§1) The activities of the EcR-VP16 chimeras are compared by transiently transfecting S2 cells as in Example 3. Tebufenozide is added to the cells at 0.2 μM concentration. Results are expressed as fold activation of constructs with chemistry as compared to without chemistry. All results are normalized to the luciferase activity of the pCGS154 reporter without receptor.\nas §1, with “chemistry addition.” for “chemistry.”"}},
  "note": "Values joined by “and” are separate entries in the source; they are usually repeats but may differ in a detail not shown here. Identical values can stand only once.",
  "data": [
    {"molecule": "CCc1ccc(C(=O)NN(C(=O)c2cc(C)cc(C)c2)C(C)(C)C)cc1", "note": "[tebufenozide]", "values": [
      {"measurement": "activation of the luciferase reporter without receptor", "setting": "[1]", "result": "does not activate the reporter in the absence of the EcR receptor"},
      {"measurement": "Fold Induction", "setting": "[2]; in vivo", "result": 116, "unit": "Fold"},
      {"measurement": "Total Photons Counted", "setting": "[2]; leaf, late stage post pollinated maize plants", "result": "110,766"},
      {"measurement": "Fold Induction", "setting": "[2]; leaf, late stage post pollinated maize plants, tebufenozide vs ethanol", "result": 30, "unit": "Fold"},
      {"measurement": "Total Photons Counted", "setting": "[2]; leaf, plants at V5 stage, 2.0 mM RH5992 in 1% surfactant, 24-48 hours", "result": "187,784"},
      {"measurement": "Activity (luciferase)", "setting": "[3]; leaves treated with 10% of 2.0 mM tebufenozide solution, 1% surfactant, 40 hours, individual plants 4-6", "result": "2729 and 745.3 and 2373"},
      {"measurement": "fold induction after treatment with tebufenozide", "setting": "[3]; maize, in vivo, 18 h, 0.2 mM", "result": "10-40 fold"},
      {"measurement": "induction above the ethanol controls", "setting": "[3]; transgenic maize plants, 40 hours", "result": "significant induction"}
    ]},
    {"molecule": "B1", "values": [
      {"measurement": "Fold Activation With Chemistry Assay #1", "setting": "pCGS154 reporter", "result": 17.37, "unit": "fold"},
      {"measurement": "Fold Activation With Chemistry Assay #2", "setting": "pCGS154 reporter", "result": 3.94, "unit": "fold"}
    ]},
    {"molecule": "B2", "values": [
      {"measurement": "Fold Activation With Chemistry", "setting": "pCGS154 reporter", "result": 553.3, "unit": "fold"}
    ]},
    {"molecule": "B3", "values": [
      {"measurement": "Fold Activation With Chemistry", "setting": "pCGS154 reporter", "result": 2.0, "unit": "fold"}
    ]},
    {"molecule": "B4", "values": [
      {"measurement": "Fold Activation With Chemistry Assay #1", "setting": "pCGS154 reporter", "result": 975.0, "unit": "fold"},
      {"measurement": "Fold Activation With Chemistry Assay #2", "setting": "pCGS154 reporter", "result": 273.7, "unit": "fold"}
    ]}
  ]
}
